Several values for one entry are separate records, joined by “and”; a condition that tells them apart may be missing. Identical values can stand only once. Entries after “also recorded” stand apart in the source; their conditions may differ. Like-named read-outs stand apart in the source and are kept apart here.
Experiments:
[1] = tested on: unilateral 6-OHDA-lesioned rats; test: Rearing counts in actometers, monotherapy (without L-Dopa); assay type: in vivo, rat; settings: Co-101244 1 mg/kg ip
Protocol: (§1) To protect norepinephrinergic neurons, animals were administered imipramine HCl (Sigma) 15 minutes before surgery. They were subsequently anesthetized with ketamine (Ceva, 75 mg/kg) and xylazine (Bayer, 10 mg/kg) and placed in stereotaxic frame (David Kopf Instrument). 6-OHDA was injected into the right ascending medial forebrain bundle at the following coordinates (in mm) relative to bregma and surface of the dura, AP = −3.5, ML = −1.5, DV = −8.7. Each rat received one injection of 6-OHDA (4 µg/µl) over a period of 5 minutes (0.5 µl/min) for a total of 10 µg per rat. Animals were monitored for 3 weeks to ensure full recovery and habituation to the environment and experimenters.
(§2) On day 21 post surgery, all rats were challenged with a small dose of subcutaneously administered apomorphine (Sigma, 0.05 mg/kg). Rats showing more than 90 contralateral rotations (360°) over a 45-minute recording period were included in the study. […] For each experiment, rats were allocated to the different experimental groups in order to get the same mean level of basal activity measured at the apomorphine challenge amongst the different experimental groups.
(§3) Drug-naïve separate rats were tested individually in clear acrylic chambers (LE8811 IR, Panlab). Locomotion was detected and measured by 16 infrared light-beam sensors located on each side of the enclosure at a height of 3 cm. Sensors were spaced such that the light beams formed a matrix of 15×15 squares over the surface. Activity counts were recorded on a computer and Acti-Track software (Actitrack, Panlab) was used to convert raw data into “distance traveled” and “rearing counts” for analysis as relevant dependent variables.
(§4) Six different combinations of A2A/NR2B antagonists were tested without L-Dopa. For each combination, there were four different procedures: vehicle only; A2A antagonist followed by vehicle; vehicle followed by the NR2B antagonist and A2A antagonist followed by the NR2B antagonist. The drugs, doses and combinations are described in Table 3. After drug administration, rats were placed in actometers (open-field) for monitoring the general level of motor activity (distance traveled and rearing counts).
(§5) Before undertaking the study, each A2A and NR2B antagonist was tested individually. The doses were selected on the basis of preliminary dose-response curves performed separately for each drug and submaximal dose (i.e. response observed is not at its maximal level) of each drug was selected for the combination studies. The two drugs were administered separately via an intraperitoneal (ip) injection with a 2-minute interval between the two drugs. Five minutes after the second injection, animals were placed in the testing cage for behavioural recording. Due to formulation and exposure issues, Tozadenant and Radiprodil had to be administered orally and therefore recording was started 60 minutes post dosing at this corresponds to maximum plasma concentrations. Eight drug-naïve animals were used for each of the four procedures; 32 in total for each combination. All behavioral experiments were conducted between 8.00 AM and 2.00 PM at the latest. Preliminary pharmacokinetic assays investigated the plasma and brain disposition of selected drugs administered alone or in combination (ie. Tozadenant/Radiprodil, and Sch-58261/Co-101244; 3 animals per group). Tozadenant and Radiprodil were measured in samples obtained 60 minutes after single oral administration at 30 mg/kg. Sch-58261 and Co-101244 were measured in samples collected 90 min after single intraperitoneal administration at 3 mg/kg.
(§6) The effects of A2A and NR2B antagonists on the level of motor activity (i.e. distance traveled and rearing counts) were assessed with three-way mixed ANOVA, combining the A2A receptor antagonist (2 levels, vehicle and the A2A drug) and the NR2B antagonist (2 levels, vehicle and the NR2B drug) as between-group factors with the time as within-subjects factor (6 or 9 levels). […]

[2] = tested on: NR2B; parameters: method as in PMID 10454475, PMID 10425109; settings: TEVC recording; cited from earlier work
[3] = tested on: unilateral 6-OHDA-lesioned rats; test: L-Dopa-induced contralateral rotations in rotometers, add-on therapy; assay type: in vivo, rat; settings: add-on to L-Dopa 25 mg/kg ip, Sch-58261 0.3 mg/kg ip, Co-101244 1 mg/kg ip
Protocol: as §1, §2
The rats tested one week earlier for general activity (actometers) were once again placed in clear acrylic individual chambers (50×45 cm) with the same treatment (drug and dose) than that previously received plus L-Dopa. Eight chambers were placed on a level, clear glass bottom, held by a robust frame, and were subdivided into four individual test cages of 25×22 cm. A removable acrylic plate served as a lid.
Rotational behaviour was recorded using a home-made computerized system. Rats were fixed in a harness and linked to mechanical sensors connected directly to a computer. Each 360° clock-wise or counter clock-wise turn was automatically recorded for up to 120 minutes at the maximum. Throughout the experiments, rats were allocated to individual test cages.
Four different combinations were administered as add-on treatment to a low active dose of L-Dopa (25 mg/kg, ip) without any dopa decarboxylase inhibitor to avoid any additional pharmacokinetic interaction. The doses of the compounds were selected on the basis of preliminary dose-response curves performed separately for each drug. To avoid ceiling effect with L-Dopa, only submaximal doses of each drug were selected for testing (as it was done previously for monotherapy). Eight L-Dopa naïve animals were tested for each of the four pharmacological condition: vehicle and L-Dopa (25 mg/kg); A2A antagonist followed by vehicle and L-Dopa; vehicle followed by NR2B antagonist and L-Dopa; A2A antagonist followed by NR2B and L-Dopa. Due to the dominance of the L-Dopa-effect on the lesioned striatum, the unilateral 6-OHDA-lesioned rats rotated after the drugs administration and behavioral activity was recorded in rotometers (i.e. level of contralateral rotations).
All drugs were administered i.p. 25 minutes before behavioural recording, except for the Tozadenant and Radiprodil combination which was administered orally 60 minutes before behavioural recording. As Radiprodil was administered orally, L-Dopa was given 45 minutes after the Radiprodil injection whereas for the other combinations L-Dopa was given 15 minutes after the NR2B drug. The drugs, the doses and the combinations given in co-administration to L-Dopa are described in Table 4 .
The impact of treatment with A2A or NR2B receptor antagonists, given alone or in combination, on the effect of L-Dopa on contralateral rotations was also analysed with a three-way mixed ANOVA. The ANOVA included the A2A and the NR2B receptor antagonists (both, 2 levels, vehicle and the drug) as between-group factors combined with time (12 levels) as within-subjects factor. […] The ability of the combination to increase and prolong the activity of L-Dopa was also explored. Consequently, drug effects were analyzed for every 10-min time interval. […]

[4] = tested on: unilateral 6-OHDA-lesioned rats; test: Distance traveled in actometers, monotherapy (without L-Dopa); assay type: in vivo, rat; settings: Co-101244 1 mg/kg ip
Protocol: as §1, §2, §3, §4, §5, §6

[5] = tested on: NR2B; settings: In vitro Binding; cited from earlier work
[6] = Plasma and brain exposure in satellite lesioned rats; assay type: in vivo, rat; settings: 90 min after dosing, mean ± SD
Protocol: Satellite lesioned rats (400–450 g) were anesthetized with isoflurane and sacrificed by exsanguination. Blood samples were collected in EDTA centrifuged 10 min at 3000 rpm at 4°C to obtain plasma and stored at −20°C prior the analysis. Brains were perfused by saline collected and immediately stored at −20°C prior the analysis. Brain samples were added to 4 volumes of water before being homogenized. A structural analog compound was added as internal standard to the samples and proteins were crashed using 8 volumes of acetonitrile. Compounds were analyzed on an API5000 mass spectrometer (ABSciex, Framingham, MA, USA.) equipped with a turbo ion spray source and interfaced with an Agilent 1290 Infinity LC system (Agilent Technologies, Waldbroon, Germany). The mass spectrometer was operated in the positive ionization mode with Multiple Reactions Monitoring used to quantify the various analytes (407 to 292 for Tozadenant; 398 to 109 for Radiprodil, 346 to 105 for Sch-58261 and 342 to 100 for Co-101244). A Waters HSS T3 column (2.1×30 mm, 1.8 µm) was used. The mobile phase consisted of 100% water with 0.1% formic acid (phase A) and 100% acetonitrile with 0.1% formic acid (phase B). The flow rate was 1 mL/min. A linear gradient was performed from 0 to 1 min (95 to 30% phase A), a jump to 90% B in 0.01 min, a hold period of 1.29 min at 90% phase B followed by equilibration at the initial condition was applied before the following injection.
as §5

- Plasma concentration ([6]; administered alone, ip 3 mg/kg, 3 animals (Co-101244 n = 2)): 54.7 (n = 2) ng/mL
- Plasma concentration ([6]; administered in combination Sch-58261+Co-101244, both ip 3 mg/kg, 3 animals): 55.4 ± 8.32 ng/mL
Structure (SMILES): Cc1ccc(CC2(O)CCN(CCOc3ccc(O)cc3)CC2)cc1 [Co-101244]
- Rearing counts, drugs alone vs vehicle, p (Newman-Keuls) ([1]; Istradefylline 0.3 mg/kg ip): Co-101244, not significant
- Rearing counts, drugs main effect, p (three-way mixed ANOVA) ([1]; Istradefylline 0.3 mg/kg ip): Not significant
- Rearing counts, drugs × time effect, p (three-way mixed ANOVA) ([1]; Istradefylline 0.3 mg/kg ip): p<0.01
- Rearing counts, drugs main effect, p (three-way mixed ANOVA) ([1]; Sch-58261 1 mg/kg ip): p<0.001
- Rearing counts, drugs × time effect, p (three-way mixed ANOVA) ([1]; Sch-58261 1 mg/kg ip): p<0.001
- IC50 [2]: 26 nM and 43 nM
- Contralateral rotations, drugs main effect, p (three-way mixed ANOVA) [3]: Not significant
- Contralateral rotations, drugs × time effect, p (three-way mixed ANOVA) [3]: p<0.001
- Distance traveled, drugs alone vs vehicle, p (Newman-Keuls) ([4]; Istradefylline 0.3 mg/kg ip): not all drugs when administered alone improved distance traveled; also recorded: Not significant
- Distance traveled, drugs main effect, p (three-way mixed ANOVA) ([4]; Istradefylline 0.3 mg/kg ip): p<0.05
- Distance traveled, drugs × time effect, p (three-way mixed ANOVA) ([4]; Istradefylline 0.3 mg/kg ip): p<0.001
- Distance traveled, drugs main effect, p (three-way mixed ANOVA) ([4]; Sch-58261 1 mg/kg ip): p<0.001
- Distance traveled, drugs × time effect, p (three-way mixed ANOVA) ([4]; Sch-58261 1 mg/kg ip): p<0.001
- IC50 [5]: 4 nM
